According to patent publication US8435553B2, “Elastin stabilization of connective tissue” (Clemson University Research Foundation (CURF), priority 2005, dated 2013):
Several values for one entry are separate records, joined by “and”; a condition that tells them apart may be missing. Identical values can stand only once. Like-named read-outs stand apart in the source and are kept apart here.

Tests used:
Rat skin fibroblasts [1] = test system: Rat skin fibroblasts
Protocol: (§1) Fresh porcine aorta was treated with Glut, Glut/TA, or Glut/PGG, as described above. After thorough rinsing (3x, 1 hr. each, 100 mL ddH2O), samples were orbitally shaken at 120 rpm 37° C. for 14 days in a PBS/azide buffer, pH7.4, for extraction of soluble, cytotoxic compounds (50 mL per 6 tissues samples, each 4 mm×4 mm).
(§2) Rat skin fibroblasts were seeded onto 24-well plates (50,000 cells/well) in 1 mL DMEM supplemented with 10% FBS and 1% penicillin-streptomycin. Cells were maintained in a humidified incubator at 37° C. with 10% CO2. After 24 hours, the media was removed and replaced with one of the PBS/azide solutions diluted 10-fold in fresh media. As control, a sample was held in buffer alone (negative control) and also in a 70% ethanol solution (positive control). Effectively, 100 μL of the ‘test solution’ was added to 900 μL of media for each well (except in the case of ethanol, in which no media was added). The cells were incubated with these solutions for 2 hours and then rinsed with 1 mL PBS. Viability of the cells was then assessed using a qualitative LIVE/DEAD® staining fluorescent stain. In addition, a quantitative measurement, MTS, was used to measure the activity of cell enzymes. Specifically, the reagent was diluted 5-fold in media, then applied to the cells for 90 minutes. A portion of the resulting solutions ([…]) was transferred to a 96-well plate and read at an absorbance of 490 nm. Samples were blanked to a well containing media and MTS reagent with no cells.
Micrographs of cells introduced to LIVE/DEAD® were taken 45 minutes after exposure. Results are shown in FIGS. 6A-6E, in which living cells appear as light spots on the dark background, and dead cells appear as darker gray spots.

Rat skin fibroblasts [2] = test system: Rat skin fibroblasts; remark: listed apart in the source
Protocol: as §1, §2

porcine aorta [3] = experiment: Tensile stress/strain test, elastic modulus of aorta; details: slope of stress-strain curve between 0 and 5% strain; n = 4
Protocol: To evaluate mechanical properties, aorta was cut to form dumbbell shapes approximately 40 mm in length, approximately 10 mm wide at each end, and approximately 5 mm wide at the center, with the long axis of the dumbbell shape being parallel to the circumferential direction of the aorta. Tensile properties of the samples were tested using standard stress/strain analysis on a Synergie 100 testing apparatus (MTS Systems Corporation, Eden Prairie, Minn.) operated at a constant uniaxial velocity of 0.2 mm/sec using a 10-Newton load cell to determine elastic modulus of the samples. Elastic modulus was calculated as the slope of the stress-strain curve between 0 and 5% strain.

porcine aorta [4] = experiment: Recoil of aortic rings by opening angle measurement; details: aortic rings cut radially, relaxed 15 minutes; n = 5
Protocol: Fresh porcine aorta was cut across the diameter into continuous rings approximately 1 cm in height as illustrated in FIG. 5A and treated with glutaraldehyde (Glut treatment). For this treatment, aortic ring samples were first fixed with 0.6% glutaraldehyde in 50 mM Hepes buffered saline, pH 7.4, overnight at room temperatures, followed by 0.2% glutaraldehyde in the same buffer for 7 days at room temperatures.
A portion of the Glut-treated rings were then treated with 0.3% pentagalloylglucose (PGG). PGG was first prepared from TA as outlined by Hagerman, et al. (Hagerman , Zhao Y., and Johanson J., “Methods for determination of condensed and hydrolyzable tannins,” Shahadi, F., Ed., Antinutrients and Phytochemicals in Foods, Wash., D.C., American Chemical Society, p. 209-222 (1997)). Specifically, TA was methanolyzed using a solution of methanol and acetate buffer. After methanolysis, the methanol was removed by rotary evaporation and replaced with ddH2O. A series of separate extractions involving diethyl ether and ethyl acetate, along with rinses of dilute methanol and ddH2O was performed to purify the PGG. The resulting precipitate was centrifuged and lyophilized to form a solid. […]
Samples were then tested for ability to recoil using opening angle measurements. […] Using these lines, the opening angles of the aortic rings were calculated. […]

[5] = Long-term binding of tannins to aortic tissue (extraction from explanted aorta); format: in vivo, Sprague-Dawley rats
Protocol: (§3) Adult male Sprague-Dawley rats were placed under general anesthesia (2% to 3% isoflurane), allowing for a midline incision along the abdomen in order to expose the infrarenal abdominal aorta. Once exposed, the abdominal aorta was treated with 0.03% PGG solution in saline for 15 minutes using a strip (1.5 cm×0.5 cm) of presoaked 8-ply sterile cotton gauze. The area was then briefly rinsed with saline, allowing induction of chemical injury (0.5 M CaCl2, delivered with gauze for 15 minutes). As controls, rat aortas were treated with physiological saline for 15 minutes, rinsed, and then subjected to calcium chloride. After treating with CaCl2, the gauze was removed and the abdominal cavity was closed with subcutaneous suture, followed by surgical staples. The rats were anesthetized after 28 days, at which point the abdominal aorta was again exposed. Digital photographs (before PGG application at day 0, as well as after 28 days) were used to measure percent increases in diameter after the 28 day period for each rat. Aortic tissue was collected for analysis. Vessels were also analyzed to determine the long-term binding of the tannins with the tissue. Tannins were extracted from explanted aorta immediately after treatment (labeled PGG in situ on FIG. 11) and measured levels were compared to those obtained from aorta explanted 28 days following PGG treatment (labeled PGG in vivo on FIG. 11).

rat abdominal aorta = experiment: CaCl2 chemical injury aneurysm model on rat abdominal aorta; format: in vivo, Sprague-Dawley rats
Source text: In vivo use of the disclosed agents was examined. The aneurysm model used was based on the perivascular application of a high concentration calcium chloride (CaCl2) solution, a method originally used to induce aneurysms in rabbit carotid arteries (see, Gertz SD, Kurgan A, Eisenberg D. J Clin Invest 1988;81(3):649-656.) and has more recently been used on abdominal aorta of rodents. (See, e.g., Freestone T., et al., Arterioscler Thromb Vasc Biol 1995;15(8):1145-1151. Freestone T., et al., Arterioscler Thromb Vasc Biol 1997;17(1):10-17. Tambiah J., et al. Br J Surg 2001;88(7):935-940.) This model results in a localized mild insult to the arterial tissue. In most studies, a significant increase in aortic diameter (indicative of aneurysm formation) was observed after 3 to 6 weeks post-injury. For this example, the CaCl2-based chemical injury was performed on rat aorta.
as §3, with “analysis.” for “analysis. Vessels were also analyzed to determine the long-term binding of the tannins with the tissue. Tannins were extracted from explanted aorta immediately after treatment (labeled PGG in situ on FIG. 11) and measured levels were compared to those obtained from aorta explanted 28 days following PGG treatment (labeled PGG in vivo on FIG. 11).”
Following superficial examination of the aortic segments, the segments were analyzed via desmosine analysis for elastin content. […]

pure aortic elastin = experiment: Kinetics of binding of tannic acid to pure aortic elastin; design: species or system porcine
Protocol: Ascending porcine aorta was collected fresh at a slaughterhouse and transported to the laboratory on ice. After cleaning fat and adherent tissues, aorta was cut into 2×4 mm strips and thoroughly rinsed in cold saline. Aortic elastin was purified by a sequence of extractions. Specifically, aortic strips were suspended in 100 mM sodium hydroxide (60 strips in 100 mL) and incubated for 14 hours at 37° C. with collagenase (0.5 units/mg wet tissue) in 50 mM Tris buffer, 10 mM calcium chloride, pH 8.0. The collagenase preparation was pre-adsorbed with elastin fibers to remove residual elastolytic activities. The final digestion step completely removed residual collagen, leaving pure aortic elastin.
The pure aortic elastin strips were placed in 2 mL microfuge tubes and suspended in 1.5 mL of an 8 mg % TA solution prepared in a 50 mM disodium hydrogen phosphate, 0.9% sodium chloride buffer, pH 5.5. A second group consisted of pure aortic elastin suspended in a solution containing 8 mg % TA and 16 mg % Glut in the same buffer. As controls, TA solution and the mixture of TA and Glut were incubated without elastin samples. Samples were incubated at room temperature and at defined time intervals (0, 20, 40, 60, 120, 360 minutes and 24 hours), samples were retrieved and analyzed for TA content in solution. Specifically, samples were mixed with a tungstate/phosphomolybdate reagent followed by addition of a saturated sodium carbonate solution and ddH2O. After 10 minutes at room temperature, OD at 760 nm was measured in a microplate spectrophotometer. Standard curves were constructed with TA in the range of 0-8 mg % and with TA (0-8 mg %) in mixtures with Glut (16 mg % ). Glut interference with the TA color reaction was minimal (no statistical differences found for all data points). Finally, the elastin strops were rinsed in ddH2O and lyophilized. The amount of TA bound to pure aortic elastin was calculated from the differences between initial TA concentration in solution and concentration of TA in solution after incubation with elastin strops and were expresses as micrograms of TA bound by 1 mg dry elastin. All samples were assayed in triplicate.

elastase = experiment: Elastase digestion of treated porcine aorta (mass loss, elastin histology); format: biochemical
Protocol: Fresh porcine aorta was cut into approximately 4 mm×4 mm squares and treated with 0.3% tannic acid (TA) (1.76 mM) in 50 mM HEPES […] buffered saline at pH 5.5 for 4 days at room temperature. A control sample was treated in mM Hepes buffered saline at pH5.5. Samples were then rinsed three times (1 hour each) in 100 mL ddH2O at room temperature and lyophilized to record dry weight. Samples (about 15-25 mg dry weight), both control and TA treated, were incubated with 1.0 mL pure elastase (20 units/ml, in 100 mM Tris, 1 mM CaCl2, 0.02% NaN3, pH 7.8 buffer) at 37° C. for 48 hours with orbital shaking at 650 rpm. Samples were then centrifuged (10000 rpm, 10 min. 4° C.) and supernatants retained to assess enzyme activity. Tissue samples were again rinsed three times (1 hour each) in 100 mL ddH2O at room temperature and lyophilized to record dry weight after elastase, and the percent of digested tissue was calculated. Elastin degradation was assessed by measuring mass loss (dry weight before and after elastase contact) and by preparation of histological slides stained with an elastin-specific stain (Voerhoff van Gieson stain).

CCO [EtOH, ethanol]
cell viability after exposure to extracts (Rat skin fibroblasts [1]): essentially no viable cells
Viability (live/dead assay) (Rat skin fibroblasts [1]; 14 day tissue extract diluted 10-fold in media, 2 hours exposure): 0%
Viability (MTS assay) (Rat skin fibroblasts [2]; 14 day tissue extract diluted 10-fold, 2 hours exposure, absorbance at 490 nm, n = 3): 0.03

O=CCCCC=O [Glut, glutaraldehyde]
cell viability after exposure to extracts (Rat skin fibroblasts [1]): remained viable
Viability (live/dead assay) (Rat skin fibroblasts [1]; rat, 2 h): 100%
Mean Elastic Modulus (porcine aorta [3]): 1.28 kPa
Viability (MTS assay) (Rat skin fibroblasts [2]; rat, 2 h): 1.04
Mean opening angle (porcine aorta [4]): 35.9 degrees

O=C(OC[C@H]1O[C@@H](OC(=O)c2cc(O)c(O)c(O)c2)[C@H](OC(=O)c2cc(O)c(O)c(O)c2)[C@@H](OC(=O)c2cc(O)c(O)c(O)c2)[C@@H]1OC(=O)c1cc(O)c(O)c(O)c1)c1cc(O)c(O)c(O)c1 [PGG, pentagalloylglucose]
level of tannins extracted from tissue ([5]; explanted 28 days following PGG treatment (PGG in vivo)): about 1.3 μg PGG/mg dry tissue
level of tannins extracted from tissue ([5]; explanted immediately after treatment (PGG in situ)): about 1.8 μg PGG/mg dry tissue
percentage change in diameter of aortic segments (rat abdominal aorta; 0.03% PGG perivascular 15 minutes before CaCl2, 28 days): less than 10%
increase in diameter of aortic segments (rat abdominal aorta; 0.03% PGG perivascular 15 minutes before CaCl2, 28 days, n=12 per group): about 100 μm
desmosine content (elastin content) (rat abdominal aorta; aortic segments 28 days post-injury): about 1350 pmol desmosine/mg protein
cytotoxicity comparison (Rat skin fibroblasts [2]): less cytotoxic than TA

O=C(OC[C@H]1O[C@@H](OC(=O)c2cc(O)c(O)c(OC(=O)c3cc(O)c(O)c(O)c3)c2)[C@H](OC(=O)c2cc(O)c(O)c(OC(=O)c3cc(O)c(O)c(O)c3)c2)[C@@H](OC(=O)c2cc(O)c(O)c(OC(=O)c3cc(O)c(O)c(O)c3)c2)[C@@H]1OC(=O)c1cc(O)c(O)c(OC(=O)c2cc(O)c(O)c(O)c2)c1)c1cc(O)c(O)c(OC(=O)c2cc(O)c(O)c(O)c2)c1 [TA, tannic acid]
TA remaining in solution, of initial TA (pure aortic elastin; after 6 hours incubation with elastin): 10%
TA remaining in solution, of initial TA (pure aortic elastin; at 24 hours incubation with elastin): less than 3.5%
TA bound at leveling off (pure aortic elastin; rapid binding within the first 6 hours, then plateau): about 3 mg of TA/mg dry elastin
decrease of amount of TA in solution (pure aortic elastin; within 1 hour of incubation with elastin, 8 mg % TA, pH 5.5): about 50%
elastin fibers in histology (Voerhoff van Gieson stain) after elastase (elastase; 0.3% TA pre-treated aorta after elastase): fully preserved
mass lost after elastase (percent of digested tissue) (elastase; 0.3% TA pre-treatment 4 days pH 5.5, elastase 20 units/ml, 37° C., 48 hours, n=6): 4-5% and 4.33%
